Measured values taken from patent US20260242363A1, “SUBSTITUTED 6-(PYRIMIDIN-4-YL)QUINOLINE COMPOUNDS AS CYCLIN DEPENDENT KINASE INHIBITORS” (BeOne Medicines I GmbH, priority 2023, published 2026).
pIC50: −log10 of the molar value.

Assays:
[1] = target: CDK4/Cyclin D1 (Homo sapiens, UniProt P11802); assay: CDK4/Cyclin D1 kinase inhibition TR-FRET assay; format: biochemical; conditions: 1 mM ATP, 0.15 μM Rb (Ser780)-biotin substrate, read-out: CDK4D1 IC50
Procedure: (§1) Compounds disclosed herein were tested for inhibition of CDK4/Cyclin D1 or CDK6/Cyclin D3 kinase in an assay based on the time-resolved fluorescence-resonance energy transfer (TR-FRET) methodology. The assay was carried out in 384-well low volume black plates in a reaction mixture containing CDK4/Cyclin D1 or CDK6/Cyclin D3, 1 mM ATP, 0.15 μM Rb (Ser780)-biotin substrate and 0-10 μM compound in buffer containing 50 mM HEPES pH7.0, 0.02% NaN3, 0.01% BSA, 0.1 mM Orthovanadate, 50 mM MgCl2, 1 mM DTT and 0.005% Tween-20. The kinase was incubated with compound for 60 minutes at room temperature and the reaction was initiated by the addition of ATP and Rb (Ser780)-biotin substrate. After reaction at room temperature for 120 minutes, an equal volume of stop/detection solution was added according to the manufacture's instruction (Cisbio Bioassays). The stop/detection solution contained Streptavidin-XL665 and Anti-pRb (Ser780) mAb-Eu Cryptate in Detection buffer (Cisbio Bioassays). Plates were incubated at room temperature for 60 minutes, and the TR-FRET signals (ex337 nm, em665 nm/620 nm) were recorded on a PHERAstar FSX plate reader (BMG Labtech). The inhibition percentage of CDK4/Cyclin D1 or CDK6/Cyclin D3 kinase activity in presence of increasing concentrations of compounds was calculated based on the ratio of fluorescence at 665 nm to that at 620 nm. The IC50 for each compound was derived from fitting the data to the four-parameter logistic equation by Dotmatics.

[2] = target: CDK6/Cyclin D3 (Homo sapiens, UniProt Q00534); assay: CDK6/Cyclin D3 kinase inhibition TR-FRET assay; format: biochemical; conditions: 1 mM ATP, 0.15 μM Rb (Ser780)-biotin substrate, read-out: CDK6D3 IC50
CDK6/Cyclin D3, sequence (Q00534 whole entry): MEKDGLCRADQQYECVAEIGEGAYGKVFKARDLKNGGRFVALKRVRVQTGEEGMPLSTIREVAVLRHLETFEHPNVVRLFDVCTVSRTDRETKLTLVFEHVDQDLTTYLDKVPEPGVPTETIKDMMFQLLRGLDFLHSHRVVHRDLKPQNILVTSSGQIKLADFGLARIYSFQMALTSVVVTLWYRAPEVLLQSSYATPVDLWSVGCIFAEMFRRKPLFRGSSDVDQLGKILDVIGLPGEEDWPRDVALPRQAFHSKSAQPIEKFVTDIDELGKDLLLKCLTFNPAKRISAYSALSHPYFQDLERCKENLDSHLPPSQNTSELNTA
CDK6/Cyclin D3, sequence (P30281 whole entry partner): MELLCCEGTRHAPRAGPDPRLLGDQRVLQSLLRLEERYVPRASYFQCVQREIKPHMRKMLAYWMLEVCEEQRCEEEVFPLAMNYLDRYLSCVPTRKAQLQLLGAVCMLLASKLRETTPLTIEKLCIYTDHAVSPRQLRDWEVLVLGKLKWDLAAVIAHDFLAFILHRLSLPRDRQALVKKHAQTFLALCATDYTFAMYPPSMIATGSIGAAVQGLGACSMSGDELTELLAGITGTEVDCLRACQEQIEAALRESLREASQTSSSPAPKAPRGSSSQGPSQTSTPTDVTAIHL
Procedure: as §1

CDK4/Cyclin D1, sequence (P11802 whole entry): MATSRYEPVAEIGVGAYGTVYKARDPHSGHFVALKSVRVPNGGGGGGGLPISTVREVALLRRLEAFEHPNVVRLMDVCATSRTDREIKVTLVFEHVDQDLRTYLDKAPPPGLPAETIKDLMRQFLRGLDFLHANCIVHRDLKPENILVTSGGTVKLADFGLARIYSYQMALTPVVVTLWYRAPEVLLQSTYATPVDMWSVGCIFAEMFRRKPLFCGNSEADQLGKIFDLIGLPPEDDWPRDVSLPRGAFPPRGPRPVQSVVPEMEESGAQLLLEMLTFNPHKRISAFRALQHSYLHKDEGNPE
CDK4/Cyclin D1, sequence (P24385 whole entry partner): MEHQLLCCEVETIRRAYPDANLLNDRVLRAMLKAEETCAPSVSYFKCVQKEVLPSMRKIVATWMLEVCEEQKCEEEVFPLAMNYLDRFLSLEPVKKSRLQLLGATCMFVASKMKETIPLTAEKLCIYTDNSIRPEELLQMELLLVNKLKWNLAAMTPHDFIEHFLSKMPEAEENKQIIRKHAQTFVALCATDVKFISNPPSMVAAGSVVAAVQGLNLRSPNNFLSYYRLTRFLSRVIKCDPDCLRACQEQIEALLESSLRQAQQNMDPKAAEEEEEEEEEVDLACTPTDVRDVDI

Row | Compound | pIC50 [1] | pIC50 [2]
1 | CC(C)c1c(CN[C@@H]2CCCOC2)cnc2ccc(-c3nc(N[C@@H]4CCOC[C@@H]4O)ncc3F)cc12 [Example 3, (3R,4R)-4-((5-fluoro-4-(4-isopropyl-3-((((R)-tetrahydro-2H-pyran-3-yl)amino)methyl)quinolin-6-yl)pyrimidin-2-yl)amino)tetrahydro-2H-pyran-3-ol] | 7.80 | 5.96
2 | CC(C)c1c(CN[C@@H]2CCCOC2)cnc2c(F)cc(-c3nc(N[C@@H]4CCOC[C@@H]4O)ncc3F)cc12 [Example 15, (3R,4R)-4-((5-fluoro-4-(8-fluoro-4-isopropyl-3-((((R)-tetrahydro-2H-pyran-3-yl)amino)methyl)quinolin-6-yl)pyrimidin-2-yl)amino)tetrahydro-2H-pyran-3-ol] | 7.68 | 6.15
3 | CC(C)c1c(CO)cnc2ccc(-c3nc(N[C@@H]4CCOC[C@@H]4O)ncc3F)cc12 [Example 1, (3R,4R)-4-((5-fluoro-4-(3-(hydroxymethyl)-4-isopropylquinolin-6-yl)pyrimidin-2-yl)amino)tetrahydro-2H-pyran-3-ol] | 8.10 | 6.97
4 | CC(C)c1c(CN2CCOCC2)cnc2ccc(-c3nc(N[C@@H]4CCOC[C@@H]4O)ncc3F)cc12 [Example 2, (3R,4R)-4-((5-fluoro-4-(4-isopropyl-3-(morpholinomethyl)quinolin-6-yl)pyrimidin-2-yl)amino)tetrahydro-2H-pyran-3-ol] | 7.68 | 6.34
5 | CC(C)c1c(C2(O)CCCC2)cnc2c(F)cc(-c3nc(N[C@@H]4CCOC[C@@H]4O)ncc3F)cc12 [Example 16, (3R,4R)-4-((5-fluoro-4-(8-fluoro-3-(1-hydroxycyclopentyl)-4-isopropylquinolin-6-yl)pyrimidin-2-yl)amino)tetrahydro-2H-pyran-3-ol] | 8.36 | 7.03
6 | CC(C)c1c(CN)cnc2ccc(-c3nc(N[C@@H]4CCOC[C@@H]4O)ncc3F)cc12 [Example 4, (3R,4R)-4-((4-(3-(aminomethyl)-4-isopropylquinolin-6-yl)-5-fluoropyrimidin-2-yl)amino)tetrahydro-2H-pyran-3-ol] | 8.59 | 6.72
7 | CC(C)c1c(C2(O)CCCC2)cnc2ccc(-c3nc(N[C@@H]4CCOC[C@@H]4O)ncc3F)cc12 [Example 12, (3R,4R)-4-((5-fluoro-4-(3-(1-hydroxycyclopentyl)-4-isopropylquinolin-6-yl)pyrimidin-2-yl)amino)tetrahydro-2H-pyran-3-ol] | 8.26 | 6.52
8 | CC(C)c1c(CN2CC(O)C2)cnc2ccc(-c3nc(N[C@@H]4CCOC[C@@H]4O)ncc3F)cc12 [Example 5, 1-((6-(5-fluoro-2-(((3R,4R)-3-hydroxytetrahydro-2H-pyran-4-yl)amino)pyrimidin-4-yl)-4-isopropylquinolin-3-yl)methyl)azetidin-3-ol] | 7.59 | 5.74
9 | CC(C)c1c(C(C)(C)O)cnc2c(F)cc(-c3nc(N[C@@H]4CCOC[C@@H]4O)ncc3Cl)cc12 [Example 17, (3R,4R)-4-((5-chloro-4-(8-fluoro-3-(2-hydroxypropan-2-yl)-4-isopropylquinolin-6-yl)pyrimidin-2-yl)amino)tetrahydro-2H-pyran-3-ol] | 8.05 | 6.64
10 | CC(C)c1c(CN2[C@H](C)COC[C@H]2C)cnc2ccc(-c3nc(N[C@@H]4CCOC[C@@H]4O)ncc3F)cc12 [Example 9, (3R,4R)-4-((4-(3-(((3R,5R)-3,5-dimethylmorpholino)methyl)-4-isopropylquinolin-6-yl)-5-fluoropyrimidin-2-yl)amino)tetrahydro-2H-pyran-3-ol] | 7.66 | 6.27
11 | CC(C)c1c(C2(O)CCOCC2)cnc2c(F)cc(-c3nc(N[C@@H]4CCOC[C@@H]4O)ncc3Cl)cc12 [Example 18, (3R,4R)-4-((5-chloro-4-(8-fluoro-3-(4-hydroxytetrahydro-2H-pyran-4-yl)-4-isopropylquinolin-6-yl)pyrimidin-2-yl)amino)tetrahydro-2H-pyran-3-ol] | 8.08 | 6.56
12 | CC(C)c1c(CN2[C@H](C)COC[C@@H]2C)cnc2ccc(-c3nc(N[C@@H]4CCOC[C@@H]4O)ncc3F)cc12 [Example 8, (3R,4R)-4-((4-(3-(((3R,5S)-3,5-dimethylmorpholino)methyl)-4-isopropylquinolin-6-yl)-5-fluoropyrimidin-2-yl)amino)tetrahydro-2H-pyran-3-ol] | 7.68 | 6.04
13 | CC(C)c1c(CN2CCC[C@@H](C#N)C2)cnc2ccc(-c3nc(N[C@@H]4CCOC[C@@H]4O)ncc3F)cc12 [Example 7, (R)-1-((6-(5-fluoro-2-(((3R,4R)-3-hydroxytetrahydro-2H-pyran-4-yl)amino)pyrimidin-4-yl)-4-isopropylquinolin-3-yl)methyl)piperidine-3-carbonitrile] | 7.62 | 6.26
14 | CC(C)c1c(CN2[C@H](C)COC[C@@H]2C)cnc2c(F)cc(-c3nc(N[C@@H]4CCOC[C@@H]4O)ncc3Cl)cc12 [Example 21, (3R,4R)-4-((5-chloro-4-(3-(((3R,5S)-3,5-dimethylmorpholino)methyl)-8-fluoro-4-isopropylquinolin-6-yl)pyrimidin-2-yl)amino)tetrahydro-2H-pyran-3-ol] | 8.10 | 6.39
15 | CC(C)c1c(CN2CCC[C@H](C#N)C2)cnc2ccc(-c3nc(N[C@@H]4CCOC[C@@H]4O)ncc3F)cc12 [Example 6, (S)-1-((6-(5-fluoro-2-(((3R,4R)-3-hydroxytetrahydro-2H-pyran-4-yl)amino)pyrimidin-4-yl)-4-isopropylquinolin-3-yl)methyl)piperidine-3-carbonitrile] | 8.15 | 6.56
16 | CC(C)c1c(CN[C@H]2CCOC2)cnc2ccc(-c3nc(N[C@@H]4CCOC[C@@H]4O)ncc3F)cc12 [Example 11, (3R,4R)-4-((5-fluoro-4-(4-isopropyl-3-((((S)-tetrahydrofuran-3-yl)amino)methyl)quinolin-6-yl)pyrimidin-2-yl)amino)tetrahydro-2H-pyran-3-ol] | 7.80 | 5.90
17 | CC(C)c1c(CNC2CC2)cnc2ccc(-c3nc(N[C@@H]4CCOC[C@@H]4O)ncc3F)cc12 [Example 10, (3R,4R)-4-((4-(3-((cyclopropylamino)methyl)-4-isopropylquinolin-6-yl)-5-fluoropyrimidin-2-yl)amino)tetrahydro-2H-pyran-3-ol] | 7.92 | 6.29
18 | CC(C)c1c(CN2[C@H](C)COC[C@@H]2C)cnc2c(F)cc(-c3nc(N[C@@H]4CCOC[C@@H]4O)ncc3F)cc12 [Example 13, (3R,4R)-4-((4-(3-(((3R,5S)-3,5-dimethylmorpholino)methyl)-8-fluoro-4-isopropylquinolin-6-yl)-5-fluoropyrimidin-2-yl)amino)tetrahydro-2H-pyran-3-ol] | 8.12 | 6.54
19 | CC(C)c1c(CNC2CC(F)(F)C2)cnc2c(F)cc(-c3nc(N[C@@H]4CCOC[C@@H]4O)ncc3F)cc12 [Example 14, (3R,4R)-4-((4-(3-(((3,3-difluorocyclobutyl)amino)methyl)-8-fluoro-4-isopropylquinolin-6-yl)-5-fluoropyrimidin-2-yl)amino)tetrahydro-2H-pyran-3-ol] | 7.82 | 6.34
